From ChEMBL document CHEMBL3817803, “Design, Synthesis, and Evaluation of Donepezil-Like Compounds as AChE and BACE-1 Inhibitors” (ACS Med Chem Lett, 2016)
Calls of active or inactive are those of the source. The rule behind the calls is not given here.

Assays:
[1] = molecular target: Cholinesterase (Equus caballus) (UniProt P81908); assay: Inhibition of horse serum BuChE using butyrylthiocholine iodide as substrate at 2 uM incubated for 20 mins by Ellman method
Acetylcholinesterase [2] = molecular target: T1, Acetylcholinesterase (Homo sapiens, UniProt P22303); assay: Inhibition of human erythrocytes AchE using acetylthiocholine iodide as substrate incubated for 20 mins by Ellman method
T1 sequence (P22303 whole entry): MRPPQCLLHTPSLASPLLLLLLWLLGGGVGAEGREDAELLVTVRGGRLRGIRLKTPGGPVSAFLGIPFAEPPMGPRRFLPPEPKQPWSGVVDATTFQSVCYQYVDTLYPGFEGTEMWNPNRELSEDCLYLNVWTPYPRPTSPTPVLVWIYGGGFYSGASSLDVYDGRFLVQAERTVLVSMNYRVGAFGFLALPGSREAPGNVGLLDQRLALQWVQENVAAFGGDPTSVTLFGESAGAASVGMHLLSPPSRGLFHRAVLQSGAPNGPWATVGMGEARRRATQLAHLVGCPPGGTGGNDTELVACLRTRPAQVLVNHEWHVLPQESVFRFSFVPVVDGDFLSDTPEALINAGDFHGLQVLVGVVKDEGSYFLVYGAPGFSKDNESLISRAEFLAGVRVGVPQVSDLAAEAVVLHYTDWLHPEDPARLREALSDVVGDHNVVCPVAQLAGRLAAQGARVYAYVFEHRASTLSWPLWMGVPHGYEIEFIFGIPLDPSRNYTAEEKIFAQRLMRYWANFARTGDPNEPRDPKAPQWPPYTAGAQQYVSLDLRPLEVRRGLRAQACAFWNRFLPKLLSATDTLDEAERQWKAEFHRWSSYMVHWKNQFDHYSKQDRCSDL

Cholinesterase [3] = molecular target: T2, Cholinesterase (Equus caballus, UniProt P81908); assay: Inhibition of horse serum BuChE using butyrylthiocoline iodide as substrate incubated for 20 mins by Ellman method
T2 sequence (P81908 whole entry): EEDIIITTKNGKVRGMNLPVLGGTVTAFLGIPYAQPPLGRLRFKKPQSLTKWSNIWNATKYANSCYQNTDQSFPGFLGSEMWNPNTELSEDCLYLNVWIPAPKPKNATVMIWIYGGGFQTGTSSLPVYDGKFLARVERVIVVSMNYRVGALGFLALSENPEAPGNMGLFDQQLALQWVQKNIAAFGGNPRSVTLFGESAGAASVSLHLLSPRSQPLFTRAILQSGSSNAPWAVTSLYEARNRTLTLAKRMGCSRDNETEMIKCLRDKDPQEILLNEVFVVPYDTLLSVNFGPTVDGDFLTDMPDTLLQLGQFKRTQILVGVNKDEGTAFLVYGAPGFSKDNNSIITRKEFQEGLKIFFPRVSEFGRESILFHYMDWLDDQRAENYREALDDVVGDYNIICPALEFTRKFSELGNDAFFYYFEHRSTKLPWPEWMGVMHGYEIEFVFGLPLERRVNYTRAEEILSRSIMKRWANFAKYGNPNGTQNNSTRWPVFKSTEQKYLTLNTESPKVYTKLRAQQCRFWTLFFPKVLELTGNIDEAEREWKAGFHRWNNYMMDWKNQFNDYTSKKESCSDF

Acetylcholinesterase [4] = molecular target: T1, Acetylcholinesterase; assay: Non-competitive inhibition of human erythrocytes AchE using acetylthiocholine iodide as substrate incubated for 20 mins by Lineweaver-Burk plot analysis
Cholinesterase [5] = molecular target: T2, Cholinesterase; assay: Mixed inhibition of horse serum BuChE using butyrylthiocoline iodide as substrate incubated for 20 mins by Lineweaver-Burk plot analysis
[6] = Selectivity ratio of Ki for horse serum BuChE to Ki for human erythrocytes AchE
[7] = Selectivity ratio of IC50 for horse serum BuChE to IC50 for human erythrocytes AchE
[8] = molecular target: Cholinesterase (Equus caballus) (UniProt P81908); assay: Inhibition of horse serum BuChE using butyrylthiocoline iodide as substrate at 2 uM preincubated for 20 mins followed by 100 fold dilution by Ellman method
Cholinesterase [9] = molecular target: T2, Cholinesterase; assay: Non-competitive inhibition of horse serum BuChE using butyrylthiocoline iodide as substrate incubated for 20 mins by Lineweaver-Burk plot analysis
[10] = molecular target: Beta-secretase 1 (Mus musculus) (UniProt P56818); assay: Inhibition of mouse BACE-1 at 1 uM preincubated for 10 mins followed by fluorescent peptide substrate addition measured for 30 mins by fluorescence plate reader method
Chain of Beta-secretase 1 (Mus musculus) (P56818 whole entry): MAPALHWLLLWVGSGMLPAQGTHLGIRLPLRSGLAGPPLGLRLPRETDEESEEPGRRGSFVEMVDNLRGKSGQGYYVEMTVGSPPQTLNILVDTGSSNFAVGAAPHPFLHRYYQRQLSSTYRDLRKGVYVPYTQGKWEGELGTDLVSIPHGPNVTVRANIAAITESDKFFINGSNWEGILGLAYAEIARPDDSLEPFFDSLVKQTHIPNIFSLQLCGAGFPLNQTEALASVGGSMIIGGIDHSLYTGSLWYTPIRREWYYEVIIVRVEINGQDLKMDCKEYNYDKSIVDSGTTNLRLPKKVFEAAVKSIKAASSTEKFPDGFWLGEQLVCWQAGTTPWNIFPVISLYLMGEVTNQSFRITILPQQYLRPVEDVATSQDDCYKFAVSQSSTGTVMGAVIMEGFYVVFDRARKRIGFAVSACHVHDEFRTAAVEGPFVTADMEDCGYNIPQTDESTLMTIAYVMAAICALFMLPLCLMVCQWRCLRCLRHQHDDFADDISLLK

Beta-secretase 1 = Beta-secretase 1 (Mus musculus, UniProt P56818); assay: Inhibition of mouse BACE-1 preincubated for 10 mins followed by fluorescent peptide substrate addition measured for 30 mins by fluorescence plate reader method
Chain of Beta-secretase 1 (P56818 whole entry): as above

Acetylcholinesterase [11] = molecular target: T1, Acetylcholinesterase
Description: Mixed inhibition of human erythrocytes AchE using acetylthiocholine iodide as substrate incubated for 20 mins by Lineweaver-Burk plot analysis

Chain of Cholinesterase (Equus caballus) (P81908 whole entry): as the sequence (P81908 whole entry) above

Structure (SMILES) | inhibition [1] | IC50 (Acetylcholinesterase [2]) [nM] | IC50 (Cholinesterase [3]) [nM] | Ki (Acetylcholinesterase [4]) [nM] | Ki (Cholinesterase [5]) [nM] | Ratio Ki [6] | Ratio IC50 [7] | inhibition [8] | Ki (Cholinesterase [9]) [nM] | inhibition [10] | IC50 (Beta-secretase 1) [nM] | Ki (Acetylcholinesterase [11]) [nM]
COc1ccc2c(c1)C(=O)/C(=C/C1CCN(Cc3ccccc3)CC1)C2 | inactive | 342 | 2650 | 260 | 1140 | 4 | 8 | Active | – | – | – | –
COc1cc2c(cc1O)C/C(=C\C1CCN(Cc3ccccc3)CC1)C2=O | inactive | 1540 | 7350 | 2820 | – | 4 | 5 | Active | 10600 | – | – | –
COc1cc2c(cc1O)C(=O)/C(=C/C1CCN(Cc3ccccc3)CC1)C2 | inactive | 1540 | 7350 | 2820 | – | 4 | 5 | Active | 10600 | – | – | –
COc1cccc2c1C(=O)/C(=C/C1CCN(Cc3ccc4c(c3)OCO4)CC1)C2 | inactive | – | 4820 | – | – | – | – | Active | 6440 | inactive | – | –
COc1cccc2c1C(=O)/C(=C/C1CCN(Cc3ccccc3)CC1)C2 | inactive | 1510 | 1140 | 1830 | 3100 | 2 | 1 | Active | – | – | – | –
COc1cccc(CN2CCC(/C=C3\Cc4cccc(OC)c4C3=O)CC2)c1 | inactive | 12200 | 5410 | 17200 | – | < 1 | < 1 | Active | 2380 | – | – | –
O=C1/C(=C/C2CCN(Cc3ccccc3)CC2)Cc2ccc(O)cc21 | inactive | 1500 | 5800 | 4220 | – | 1 | 4 | Active | 5610 | – | – | –
COc1cccc(CN2CCC(/C=C3\Cc4cc(OC)ccc4C3=O)CC2)c1 | inactive | 853 | 2170 | 554 | – | 6 | 3 | Active | 3490 | Active | < 1000 | –
O=C1/C(=C/C2CCN(Cc3ccccc3)CC2)Cc2cccc(O)c21 | inactive | 636 | 4760 | 355 | 6480 | 18 | 7 | Active | – | Active | < 1000 | –
COc1cccc(CN2CCC(/C=C3\Cc4ccc(OC)cc4C3=O)CC2)c1 | inactive | 34500 | 1620 | 119000 | – | < 1 | < 1 | Active | 3890 | – | – | –
COc1ccc2c(c1)C/C(=C\C1CCN(Cc3ccccc3)CC1)C2=O | inactive | 43 | 5730 | 29 | – | 110 | 132 | Active | 3140 | Active | < 1000 | –
O=C1/C(=C/C2CCN(Cc3ccccc3)CC2)Cc2cc(O)ccc21 | inactive | 2160 | 7590 | 1980 | 8460 | 4 | 4 | Active | – | Active | < 1000 | –
COc1ccc2c(c1)C(=O)/C(=C/C1CCN(Cc3ccc4c(c3)OCO4)CC1)C2 | inactive | – | 9820 | – | – | – | – | Active | 4330 | inactive | – | –
COc1cc2c(cc1OC)C(=O)/C(=C/C1CCN(Cc3ccccc3)CC1)C2 | inactive | 58 | 4740 | 35 | 2440 | 71 | 81 | Active | – | Active | < 1000 | –
O=C1/C(=C/C2CCN(Cc3ccccc3)CC2)Cc2cc3c(cc21)OCO3 | inactive | 755 | 15100 | – | – | 7 | 20 | Active | 7250 | Active | < 1000 | 980
